Measurements reported in PMC3922537 (Organic & biomolecular chemistry, 2013).

System: CYP76AH4
Assay: in vitro hydroxylation assay of recombinant enzyme, GC-MS
Type: cell-based, Salvia rosmarinus
Conditions: C12-hydroxylation to ferruginol; enzyme preparation not described in main text

Km: 25 ± 6 µM
Structure (SMILES): CC(C)c1ccc2c(c1)CC[C@H]1C(C)(C)CCC[C@]21C [compound 3, abietatriene]
